Like-named read-outs stand apart in the source and are kept apart here.
Assays:
[1] = tested on: healthy mice; assay: Acute oral toxicity; format: in vivo; conditions: single oral dose, healthy ICR mice
Method: (§1) ICR mice (n = 10/group), aged 6 to 8 weeks, received a single oral dose of compounds 5, 18, and 41 (732–2,234 mg/kg). LD50 values were determined by Probit analysis (SPSS 26.0).

[2] = Acute oral toxicity; format: in vivo; conditions: ICR, mouse, in vivo, po, single oral dose, healthy ICR mice
Method: as §1

[3] = tested on: S. japonicum (Chinese strain); assay: In vivo antischistosomal assay in infected mice (worm burden, worm morphology, liver eggs); design: species or system Schistosoma japonicum in ICR mice; conditions: for Morphology of worms after treatment in vivo, adult stage / Worm burden reduction (WBR), Adult / Number of worms, Adult / Morphology of worms after treatment in vivo, juvenile stage / Worm burden reduction (WBR), Juvenile / Number of worms, Juvenile: mice, oral 100 mg/kg/day for 5 days; for Worm burden reduction (WBR), Adult: adult stage (from 35 dpi); for Number of worms, Adult: adult stage (treatment from 35 dpi, sacrifice 45 dpi); for Worm burden reduction (WBR), Juvenile: juvenile stage (from 9 dpi); for Number of worms, Juvenile: juvenile stage (treatment from 9 dpi, sacrifice 45 dpi); for Hepatic egg burden, adult-stage treatment: treatment in adult stage
Method: (§2) Lead compounds 5, 18, and 41 (100 mg/kg) were orally administered once daily for 5 consecutive days to infected mice (n = 6/group) during two therapeutic windows: (i) Juvenile stage: treatment initiated at 9 dpi, terminal sacrifice at 45 dpi; (ii) adult stage: treatment initiated at 35 dpi, terminal sacrifice at 45 dpi. Positive controls received praziquantel (PZQ, 100 mg/kg/day ×5 days); negative controls received PBS (0.3 mL). Mice treated at 9 dpi were euthanized 36 days post-treatment; those treated at 35 dpi were euthanized 10 days post-treatment. Adult worms were perfused from the hepatic portal system and mesenteric veins. Parasite burden was quantified by worm enumeration, and worm burden reduction (WBR) was calculated:
WBR (%)=[1−Mean worm count (treated) / Mean worm count (control)]×100% .

[4] = tested on: adult S. japonicum worms; assay: SEM examination in vitro of tegumental damage; format: cell-based, Schistosoma japonicum; conditions: 100 μM
Method: Adult S. japonicum worms (male/female) underwent standardized fixation after in vitro exposure to compounds 5, 18, and 41 over a period of 12 h. First, the samples were immersed in 2.5% glutaraldehyde (prepared with 40 mL 0.2 M phosphate-buffered saline [PBS, pH 7.4], 5 mL 50% glutaraldehyde stock, and 55 mL ultrapure water) at 4°C for 24 h. After triple washes in PBS for 5 min each, worms were rinsed with deionized water for 10 min. The next dehydration sequence included ethanol gradient (50%, 70%, 80%, 90%, 100%; 5 min/step) and tert-butanol gradient (50%, 70%, 90%, 100%; 10 min/step). The worms were freeze-dried, directly sputter-covered with a thin gold layer using a Sputter Coater, and imaged using a scanning electron microscope (Quanta 450).

[5] = tested on: adult worms of S. japonicum (Chinese strain); assay: microbe, parasite or virus in culture; conditions: for Mortality (%) 72 h: 100 μM, adult worms in vitro; for mortality at 100 µM / LC50: Schistosoma japonicum; for LC50: read-out: LC50 (72 h)
Method: S. japonicum cercariae (Chinese strain) were acquired from infected Oncomelania hupensis snails (Wuxi Insect Vector Biology Co., Ltd., China) ([28]). ICR mice (6–8 weeks, 22–25 g; Hunan SJA Laboratory Animal Co., Ltd., China) were percutaneously infected via abdominal exposure to 60 ± 5 cercariae. Adult schistosomes were perfused from the hepatic portal system at 35 dpi using a modified Duvall and DeWitt method ([29]). Animals were housed under controlled conditions (22°C ± 1°C, 12 h light/dark cycle) with ad libitum access to feed and water.
Adult S. japonicum worms isolated from ICR mice were maintained in sterile culture medium (2.0 mL) comprising 77% RPMI 1640 (Lanzhou Bailing Biotech Co., Ltd.; pH 7.5, HEPES-buffered), 20% heat-inactivated fetal bovine serum (Lanzhou Minhai Bio-Engineering Co., Ltd.), and 3% penicillin-streptomycin (100×; 10,000 U/mL penicillin, 10,000 μg/mL streptomycin; New Cell & Molecular Biotech Co., Ltd., China). Incubation was performed at 37°C under 5% CO2. Test compounds were dissolved in DMSO as 0.1 M stock solutions; 2.0 μL aliquots were added to worm-containing media (final concentration: 100 μM in 0.1% DMSO). Negative controls received equivalent volumes of vehicle (0.1% DMSO in RPMI 1640). Parasite viability (motor activity, tegumental integrity, survival) was assessed every 12 h for 72 h using an Olympus CKX53 inverted microscope (n ≥ 3 independent replicates).

[6] = tested on: MCF-7 (human breast cancer) cells; assay: Cytotoxicity MTT assay, MCF-7; format: cell-based; conditions: Homo sapiens, MCF7, 48 h incubation
Method: (§3) The cytotoxicity of compounds 5, 18, and 41 against human liver cancer (HepG2) and human breast cancer (MCF-7) cell lines in vitro was evaluated using the MTT assay, with cisplatin as a positive control. Cells were plated into 96-well plates and incubated in 100 μL of Dulbecco’s modified Eagle’s medium for 24 h. Test compounds at specified final concentrations were then added to the culture medium. After 48 h incubation, MTT dye (10 μL, 0.5 mg/mL) was added, and cells were incubated for an additional 4 h at 37°C in 5% CO2. Formazan crystals were dissolved in 100 μL DMSO per well, and absorbance at 570 nm (OD570) was measured using an ELx800 microplate reader (Bio-Tek, Winooski, VT, USA) with background subtraction. Cytotoxicity was expressed as IC50 (the concentration causing 50% reduction in cell growth compared to untreated controls). Experiments were performed in triplicate, with results presented as mean ± standard deviation.

[7] = Serum hepatic/renal function profiling of infected, treated mice; format: in vivo, ICR mice; conditions: for Serum GGT: normal range 1–15 U/L; for Serum TBIL: normal range 1.7–15.4 µM; for Serum BUN: normal range 4.9–10.4 mM; for Serum ALT: normal range 28–132 U/L; for Serum AST: normal range 59–247 U/L; for Nephrotoxicity: infected treated mice, judged from BUN
Method: Following maturation, Schistosoma parasites initiate oviposition, with a proportion of eggs migrating via the circulatory system to hepatic tissues. This ectopic deposition induces granuloma formation that subsequently elicits a cascade of immune-mediated pathologies, ultimately compromising hepatic and renal functions in murine models. To evaluate therapeutic efficacy, retro-orbital blood sampling was performed for comprehensive hepatic function profiling, enabling systematic assessment of pharmacological impacts on schistosomiasis-associated organ damage.
as §2, with “calculated: […]” for “calculated:”

[8] = tested on: HepG2 (human liver cancer) cells; assay: Cytotoxicity MTT assay, HepG2; format: cell-based; conditions: Homo sapiens, HepG2, 48 h incubation
Method: as §3

[9] = tested on: Schistosoma mansoni; design: method as in PMID 25583726; conditions: S. mansoni mouse model; cited from earlier work
[10] = 24 h, read-out: Mortality (%) 24 h, 100 μM, 24 h, adult worms in vitro
[11] = 36 h, read-out: Mortality (%) 36 h, 100 μM, 36 h, adult worms in vitro
[12] = 48 h, read-out: Mortality (%) 48 h, 100 μM, 48 h, adult worms in vitro
[13] = 72 h, read-out: Mortality (%) 72 h, 100 μM, 72 h, adult worms in vitro
[14] = infected mice treated in adult stage
[15] = infected mice treated in juvenile stage

## CN(NC(=O)c1ccc(Cl)c(Cl)c1)c1ccc(Br)cc1 [Compound 5]
[1]
  LD50: >2,000 mg/kg
  LogLD50: >3.30
[2]
  LD50: 1400 mg/kg
[3]
  Morphology of worms after treatment in vivo, adult stage: making the males thicker and shorter
  Number of worms, Adult: 29
  Morphology of worms after treatment in vivo, juvenile stage: marked stunting of male schistosomes
  Number of worms, Juvenile: 30
[3]; 100 mg/kg/day
  Worm burden reduction (WBR), Adult: 34%
  Worm burden reduction (WBR), Juvenile: 25%
[4]; female worms
  Tegumental damage (SEM), female adult worms: full-thickness sucker ulceration with stromal collapse, atrophic transformation with coalescing vesicles, and advanced tissue disintegration with tegumental wrinkling
[4]; male worms
  Tegumental damage (SEM), male adult worms: complete spine ablation in gynecophoric canals, suctorial constriction, and muscular layer protrusion through disrupted tegument
[5]; 72 h
  Mortality (%) 72 h: 100%
  LC50: 80.2 ± 1.8 µM
[5]; [10]
  mortality at 100 µM: 35%
[5]; [11]
  mortality at 100 µM: 65%
[5]; [12]
  mortality at 100 µM: 95%
[5]; [13]
  mortality at 100 µM: > 80%
[6]
  IC50: 43.8 ± 2.53 µM
[7]; [14]
  Serum GGT: 0.73 ± 0.40 U/L
  Serum TBIL: 6.70 ± 3.39 µM
  Serum BUN: 8.80 ± 0.96 mM
  Serum ALT: 313.33 ± 166.21 U/L
  Serum AST: 527.33 ± 303.66 U/L
[7]; [15]
  Serum GGT: 0.73 ± 0.06 U/L
  Serum TBIL: 7.48 ± 1.64 µM
  Serum BUN: 9.83 ± 1.43 mM
  Serum ALT: 357.67 ± 176.92 U/L
  Serum AST: 602.33 ± 309.33 U/L
[7]
  Nephrotoxicity: without observable nephrotoxicity
[8]
  IC50: 23.2 ± 1.43 µM

## CN(NC(=O)c1ccc(Br)cc1)c1ccc(Cl)c(Cl)c1 [Compound 18]
[1]
  LD50: >2,000 mg/kg
  LogLD50: >3.30
[2]
  LD50: 1400 mg/kg
[3]
  Morphology of worms after treatment in vivo, adult stage: making the males thicker and shorter
  Number of worms, Adult: 35
  Morphology of worms after treatment in vivo, juvenile stage: marked stunting of male schistosomes
  Number of worms, Juvenile: 24
[3]; 100 mg/kg/day
  Worm burden reduction (WBR), Adult: 20%
  Worm burden reduction (WBR), Juvenile: 40%
[3]; mouse livers at 45 dpi
  Hepatic egg burden, adult-stage treatment: comparable egg burdens to untreated controls
[3]; mouse livers at 45 dpi, treatment in juvenile stage
  Hepatic egg burden, juvenile-stage treatment: significantly reduced egg burdens
[5]; 72 h
  Mortality (%) 72 h: 100%
  LC50: 83 ± 1.9 µM
[5]; [10]
  mortality at 100 µM: 10%
[5]; [11]
  mortality at 100 µM: 50%
[5]; [12]
  mortality at 100 µM: 80%
[5]; [13]
  mortality at 100 µM: > 90%
[6]
  IC50: 40.9 ± 2.82 µM
[7]; [14]
  Serum GGT: 6.73 ± 9.70 U/L
  Serum TBIL: 18.73 ± 6.05 µM
  Serum BUN: 8.68 ± 1.22 mM
  Serum ALT: 322.33 ± 239.58 U/L
  Serum AST: 783.67 ± 457.47 U/L
[7]; [15]
  Serum GGT: 0.93 ± 0.81 U/L
  Serum TBIL: 2.98 ± 1.03 µM
  Serum BUN: 12.53 ± 1.31 mM
  Serum ALT: 546.00 ± 82.15 U/L
  Serum AST: 673.67 ± 153.58 U/L
[7]
  Nephrotoxicity: transient nephrotoxicity
[8]
  IC50: 22.6 ± 1.48 µM

## CN(NC(=O)c1ccc(Br)cc1)c1ccc(C(F)(F)F)c(Cl)c1 [Compound 41]
[1]
  LD50: >2,000 mg/kg
  LogLD50: >3.30
[2]
  LD50: 1400 mg/kg
[3]
  Morphology of worms after treatment in vivo, adult stage: making the males thicker and shorter
  Number of worms, Adult: 31
  Morphology of worms after treatment in vivo, juvenile stage: marked stunting of male schistosomes
  Number of worms, Juvenile: 28
[3]; 100 mg/kg/day
  Worm burden reduction (WBR), Adult: 30%
  Worm burden reduction (WBR), Juvenile: 30%
[3]; mouse livers at 45 dpi
  Hepatic egg burden, adult-stage treatment: comparable egg burdens to untreated controls
[5]; [10]
  mortality at 100 µM: 35%
[5]; [11]
  mortality at 100 µM: 70%
[5]; [12]
  mortality at 100 µM: 80%
[5]; 72 h
  LC50: 61.4 ± 1.8 µM
[5]; [13]
  mortality at 100 µM: 100%
[6]
  IC50: 39.2 ± 3.53 µM
[7]; [14]
  Serum GGT: 0.87 ± 0.32 U/L
  Serum TBIL: 7.95 ± 2.11 µM
  Serum BUN: 7.79 ± 2.11 mM
  Serum ALT: 274.67 ± 186.53 U/L
  Serum AST: 453.33 ± 217.99 U/L
[7]; [15]
  Serum GGT: 1.60 ± 0.17 U/L
  Serum TBIL: 3.61 ± 1.39 µM
  Serum BUN: 6.18 ± 4.85 mM
  Serum ALT: 364.00 ± 329.78 U/L
  Serum AST: 557.67 ± 630.32 U/L
[7]
  Nephrotoxicity: without observable nephrotoxicity
[8]
  IC50: 20.7 ± 1.36 µM

## O=C(Nc1ccc(Cl)c(Cl)c1)Nc1ccc(Cl)c(Cl)c1 [MMV665852, reference compound]
[3]
  Number of worms, Adult: 36
  Worm burden reduction (WBR), Juvenile: 20%
  Number of worms, Juvenile: 32
[9]
  In vivo antischistosomal efficacy (worm burden reduction): minimal antischistosomal efficacy
[5]; [10]
  mortality at 100 µM: 100%
[5]; [11]
  mortality at 100 µM: 100%
[5]; [12]
  mortality at 100 µM: 100%
[5]; 72 h
  LC50: 12.5 ± 2.36 µM
[5]; [13]
  mortality at 100 µM: 100%

— paper PMC12889028, “Discovery and biological evaluation of novel N-aryl-N′-methylbenzodrazides against Schistosoma japonicum in vitro and in vivo” (Microbiology Spectrum, 2025)
